Assay results as given in the NIST ThermoML archive (doi:10.1021/je8001442).
± gives the expanded uncertainty stated by the source.

Assay: excess molar enthalpy (molar enthalpy of mixing); xn = mol fraction of the nth substance listed
Details: Fluid (supercritical or subcritical phases), Flow calorimetry

CC(C)OC(C)C [diisopropyl ether] + O=C=O
excess molar enthalpy [kcal/mol]
Details | 298.15 K | 303.15 K | 308.15 K
5000 kPa, x2 = 0.1255 | -0.279 ± 0.00598 | -0.251 ± 0.0055 | -0.293 ± 0.00621
5000 kPa, x2 = 0.2326 | -0.527 ± 0.0112 | -0.526 ± 0.0112 | -0.53 ± 0.0112
5000 kPa, x2 = 0.3249 | -0.734 ± 0.0155 | -0.741 ± 0.0158 | -0.745 ± 0.0158
5000 kPa, x2 = 0.4054 | -0.913 ± 0.0194 | -0.922 ± 0.0196 | -0.924 ± 0.0196
5000 kPa, x2 = 0.4762 | -1.07 ± 0.0229 | -1.08 ± 0.0229 | -1.09 ± 0.0232
5000 kPa, x2 = 0.5389 | -1.2 ± 0.0263 | -1.22 ± 0.0263 | -1.22 ± 0.0263
5000 kPa, x2 = 0.5949 | -1.33 ± 0.0287 | -1.35 ± 0.0287 | -1.34 ± 0.0287
5000 kPa, x2 = 0.6452 | -1.45 ± 0.0311 | -1.46 ± 0.0311 | -1.45 ± 0.0311
5000 kPa, x2 = 0.6906 | -1.55 ± 0.0335 | -1.55 ± 0.0335 | -1.55 ± 0.0335
5000 kPa, x2 = 0.7317 | -1.62 ± 0.0335 | -1.64 ± 0.0359 | –
5000 kPa, x2 = 0.7692 | -1.71 ± 0.0359 | – | –
5000 kPa, x2 = 0.8036 | -1.79 ± 0.0382 | – | –
5000 kPa, x2 = 0.8351 | -1.85 ± 0.0382 | – | –
5500 kPa, x2 = 0.1263 | -0.277 ± 0.00598 | -0.278 ± 0.00598 | -0.275 ± 0.00598
5500 kPa, x2 = 0.2338 | -0.496 ± 0.0105 | -0.505 ± 0.0108 | -0.525 ± 0.0112
5500 kPa, x2 = 0.3265 | -0.682 ± 0.0146 | -0.715 ± 0.0153 | -0.709 ± 0.0151
5500 kPa, x2 = 0.4071 | -0.861 ± 0.0184 | -0.881 ± 0.0186 | -0.891 ± 0.0189
5500 kPa, x2 = 0.478 | -0.991 ± 0.021 | -1.03 ± 0.0217 | -1.04 ± 0.0222
5500 kPa, x2 = 0.5407 | -1.13 ± 0.0239 | -1.16 ± 0.0239 | -1.18 ± 0.0239
5500 kPa, x2 = 0.5966 | -1.25 ± 0.0263 | -1.28 ± 0.0263 | -1.29 ± 0.0287
5500 kPa, x2 = 0.6468 | -1.34 ± 0.0287 | -1.38 ± 0.0287 | -1.4 ± 0.0287
5500 kPa, x2 = 0.6921 | -1.45 ± 0.0311 | -1.48 ± 0.0311 | -1.49 ± 0.0311
5500 kPa, x2 = 0.7331 | -1.52 ± 0.0335 | -1.56 ± 0.0335 | -1.57 ± 0.0335
5500 kPa, x2 = 0.7705 | -1.61 ± 0.0335 | -1.64 ± 0.0335 | –
5500 kPa, x2 = 0.8047 | -1.67 ± 0.0359 | -1.69 ± 0.0359 | –
5500 kPa, x2 = 0.8361 | -1.74 ± 0.0359 | – | –
5500 kPa, x2 = 0.865 | -1.78 ± 0.0382 | – | –
5500 kPa, x2 = 0.8918 | -1.82 ± 0.0382 | – | –
5500 kPa, x2 = 0.9019 | -1.83 ± 0.0382 | – | –
6000 kPa, x2 = 0.127 | -0.232 ± 0.00502 | -0.255 ± 0.0055 | -0.277 ± 0.00598
6000 kPa, x2 = 0.235 | -0.442 ± 0.00932 | -0.479 ± 0.0103 | -0.494 ± 0.0105
6000 kPa, x2 = 0.3279 | -0.621 ± 0.0131 | -0.675 ± 0.0143 | -0.693 ± 0.0148
6000 kPa, x2 = 0.4087 | -0.761 ± 0.0163 | -0.839 ± 0.0179 | -0.853 ± 0.0182
6000 kPa, x2 = 0.4796 | -0.89 ± 0.0189 | -0.973 ± 0.0208 | -1.02 ± 0.0217
6000 kPa, x2 = 0.5423 | -1.01 ± 0.0215 | -1.09 ± 0.0232 | -1.12 ± 0.0239
6000 kPa, x2 = 0.5982 | -1.09 ± 0.0232 | -1.21 ± 0.0263 | -1.22 ± 0.0263
6000 kPa, x2 = 0.6483 | -1.19 ± 0.0239 | -1.32 ± 0.0287 | -1.34 ± 0.0287
6000 kPa, x2 = 0.6934 | -1.27 ± 0.0263 | -1.4 ± 0.0287 | -1.42 ± 0.0311
6000 kPa, x2 = 0.7344 | -1.33 ± 0.0287 | -1.48 ± 0.0311 | -1.49 ± 0.0311
6000 kPa, x2 = 0.7716 | -1.4 ± 0.0287 | -1.54 ± 0.0335 | -1.56 ± 0.0335
6000 kPa, x2 = 0.8057 | -1.48 ± 0.0311 | -1.6 ± 0.0335 | -1.61 ± 0.0335
6000 kPa, x2 = 0.8248 | – | – | -1.64 ± 0.0359
6000 kPa, x2 = 0.837 | -1.52 ± 0.0335 | -1.66 ± 0.0359 | –
6000 kPa, x2 = 0.8658 | -1.59 ± 0.0335 | -1.7 ± 0.0359 | –
6000 kPa, x2 = 0.8924 | -1.63 ± 0.0335 | -1.71 ± 0.0359 | –
6000 kPa, x2 = 0.9171 | -1.65 ± 0.0359 | – | –
6000 kPa, x2 = 0.931 | -1.63 ± 0.0335 | – | –
6000 kPa, x2 = 0.94 | -1.67 ± 0.0359 | – | –
6000 kPa, x2 = 0.9614 | -1.64 ± 0.0359 | – | –
6000 kPa, x2 = 0.9813 | -1.48 ± 0.0311 | – | –
6500 kPa, x2 = 0.1277 | – | – | -0.254 ± 0.0055
6500 kPa, x2 = 0.2361 | – | – | -0.464 ± 0.0098
6500 kPa, x2 = 0.3292 | – | – | -0.638 ± 0.0136
6500 kPa, x2 = 0.4101 | – | – | -0.787 ± 0.0167
6500 kPa, x2 = 0.4811 | – | – | -0.92 ± 0.0196
6500 kPa, x2 = 0.5438 | – | – | -1.04 ± 0.022
6500 kPa, x2 = 0.5996 | – | – | -1.14 ± 0.0239
6500 kPa, x2 = 0.6496 | – | – | -1.24 ± 0.0263
6500 kPa, x2 = 0.6947 | – | – | -1.33 ± 0.0287
6500 kPa, x2 = 0.7355 | – | – | -1.39 ± 0.0287
6500 kPa, x2 = 0.7727 | – | – | -1.45 ± 0.0311
6500 kPa, x2 = 0.8066 | – | – | -1.5 ± 0.0311
6500 kPa, x2 = 0.8378 | – | – | -1.56 ± 0.0335
6500 kPa, x2 = 0.8665 | – | – | -1.6 ± 0.0335
7000 kPa, x2 = 0.1283 | – | – | -0.232 ± 0.00502
7000 kPa, x2 = 0.237 | – | – | -0.421 ± 0.00908
7000 kPa, x2 = 0.3304 | – | – | -0.587 ± 0.0124
7000 kPa, x2 = 0.4114 | – | – | -0.728 ± 0.0155
7000 kPa, x2 = 0.4824 | – | – | -0.857 ± 0.0182
7000 kPa, x2 = 0.5451 | – | – | -0.95 ± 0.0203
7000 kPa, x2 = 0.6009 | – | – | -1.05 ± 0.0225
7000 kPa, x2 = 0.6509 | – | – | -1.13 ± 0.0239
7000 kPa, x2 = 0.6958 | – | – | -1.21 ± 0.0263
7000 kPa, x2 = 0.7366 | – | – | -1.26 ± 0.0263
7000 kPa, x2 = 0.7736 | – | – | -1.33 ± 0.0287
7000 kPa, x2 = 0.8075 | – | – | -1.38 ± 0.0287
7000 kPa, x2 = 0.8385 | – | – | -1.42 ± 0.0311
7000 kPa, x2 = 0.8671 | – | – | -1.44 ± 0.0311
7000 kPa, x2 = 0.8935 | – | – | -1.46 ± 0.0311
7000 kPa, x2 = 0.9179 | – | – | -1.47 ± 0.0311
7500 kPa, x2 = 0.1289 | – | – | -0.2 ± 0.0043
7500 kPa, x2 = 0.238 | – | – | -0.356 ± 0.00765
7500 kPa, x2 = 0.3315 | – | – | -0.488 ± 0.0105
7500 kPa, x2 = 0.4127 | – | – | -0.625 ± 0.0134
7500 kPa, x2 = 0.4837 | – | – | -0.727 ± 0.0155
7500 kPa, x2 = 0.5464 | – | – | -0.819 ± 0.0174
7500 kPa, x2 = 0.6021 | – | – | -0.904 ± 0.0191
7500 kPa, x2 = 0.652 | – | – | -0.973 ± 0.0208
7500 kPa, x2 = 0.6969 | – | – | -1.04 ± 0.0222
7500 kPa, x2 = 0.7376 | – | – | -1.1 ± 0.0234
7500 kPa, x2 = 0.7745 | – | – | -1.15 ± 0.0239
7500 kPa, x2 = 0.8083 | – | – | -1.19 ± 0.0263
7500 kPa, x2 = 0.8392 | – | – | -1.24 ± 0.0263
7500 kPa, x2 = 0.8677 | – | – | -1.25 ± 0.0263
7500 kPa, x2 = 0.894 | – | – | -1.28 ± 0.0263
7500 kPa, x2 = 0.9183 | – | – | -1.26 ± 0.0263
7500 kPa, x2 = 0.9409 | – | – | -1.24 ± 0.0263
7500 kPa, x2 = 0.962 | – | – | -1.17 ± 0.0239
